Measurements taken from patent US20230312652A1, “NOVEL PEPTIDES AND USES THEREOF” (Aarhus Universitet, priority 2020, published 2023).
Where a SMILES comes first, the peptide text is derived from it.

What was measured:
SH-SY5Y cells = test: Lysosomal acidification in SH-SY5Y cells, LysoSensor Yellow/Blue DND-160; type: cell-based, human; details: 1 uM, 4 hours
Procedure: SH-SY5Y were seeded in poly-L coated black 96 well plate with clear bottom at a density of ˜3×10^4. The following day, the cells were stimulated with 1 uM P1 (SEQ ID NO: 1) for 4 hours and subsequently incubated with LysoSensor™ Yellow/Blue DND-160 (10 uM) for 20 min. Cells were rinsed with PBS and excitation 340 & 380 and emission 535 was read in a plate-reader. A pH calibration curve buffer was likewise measured. Calculation of the fluorescence intensity ratio of excitation (340/380) results in an average whole-cell intraorganellar pH reflective of all LysoSensor™ Yellow/Blue DND-160-labeled organelles combined. Using the generated linear trendline from the standard curve for pH and 340/380 intensity ratio, calculate the intraorganellar pH of samples.

ST HDH cells (Q111, Q7) = test: Active mitochondrial mass in ST HDH cells, MitoTracker; type: cell-based, mouse
Procedure: The impact on mitochondrial function was assessed in ST HDH cells (mouse striatal cell line) expressing either HTT with a 111 polyglutamine stretch (Q111) or a 7 polyglutamine stretch (Q7), thereby serving as a model of HD. The cells were stimulated with P1 at timepoints between 0-24 hours and mitochondrial mass was subsequently measured using MitoTracker—a probe which binds to active mitochondria. Signal was measured in plate-reader at ex/em […].

[1] = test system: BDNF, TrkB, PGC1a, DARPP32; test: Neurotrophic and mitochondrial proteins in cortex of R6/2 mice after daily SC administration; type: in vivo, mouse; details: 13 mg/kg SC daily, 8 to 12 weeks of age
Procedure: In a separate study, we validated target engagement of P1 (SEQ ID NO: 1) in R6/2 mice (mouse model of Huntington's), when treated for a prolonged period in the late stage of disease in this model. R6/2 mice were obtained from the Jackson Laboratory as: • FEMALE B6CBA-Tg(HDexon1)62Gpb/3J, stock 006494. Hemizygous (R6/2) • FEMALE B6CBA-Tg(HDexon1)62Gpb/3J, stock 006494. NonCarrier (WT controls)
(§1) The R6/2 mice were injected with a daily dose of 13 mg/kg of P1 subcutaneously in 4.38 mM L-His, 140 mM NaCl, 0.2% Tween-20 and 1500 IU hyaluronidase (pH 6.15) between 8 weeks to 12 weeks of age. At 12 weeks of age, mice were sacrificed and their brains removed and both hippocampus—cortex and striatal tissue was isolated and lysed in RIPA lysis buffer containing containing cOmplete and phosSTOP.
Levels of both BDNF and its receptor, TrkB, were validated along with levels of the mitochondrial master regulator PGC1a. In addition, levels of DARPP32, a marker of medium spiny neurons (MSN), which are the neurons that ultimately perish in HD, were evaluated in cortex tissue.

[2] = test system: R6/2 mice (mouse model of Huntington's); test: Brain weight and activity studies in R6/2 mice (open field, clasping, rotarod); type: in vivo; details: 13 mg/kg SC daily
Procedure: as §1
Prior to treatment (8 weeks of age), the R6/2 mice were weighed and assessed for clasping and rotarod behavior before randomization to 4 cages of n=6 each (two cages pr treatment group). The experimenter remained blinded throughout the studies and data analysis. Motor coordination was measured by hind-limb clasping and rotarod between week 7-12.
Clasping: Mice were once weekly assessed for clasping behavior. Mice were placed on the top grid of a cage and then held by the tail and lifted over the top of the homecage for 10 successive trials of 3 seconds with 3 second rest intervals
Rotarod: Accelerating test—cylinder accelerates from 4 to 40 RPM in 5 minutes with linear speed progression. During the first week of training, mice undergo 3 trials per day for 3 consecutive days. During training sessions, mice receive “second changes” when falling from the rotarod. The following weeks, mice are tested on only one day for 3 consecutive trials. The mean latency to fall is used for data analysis.
At 11 weeks of age, mice were subjected to an open field consisting of a 40×40 cm box with transparent Plexiglas walls of 50 cm height. Their behaviour was recorded using an automated tracking software and camera (Anymaze, Havard apparatus). Distance travelled and number of rears were recorded over a 20 min. period.
Brain weight: At 12 weeks of age, mice were sacrificed and the entire brain was carefully extracted and weighed using a fine-scale weigh.

[3] = Plasma stability, mouse plasma; type: in vitro ADME; details: 2 μM, 37° C.
Procedure: Mouse or human plasma were incubated with 2 μM of P1 (SEQ ID NO: 1) or propantheline bromide (positive control for degradation) and left at 37° C. At each time point, stop solution was added to precipitate the solution and after mixing and centrifugation, supernatant was used for LCMS analysis.

[4] = Liver microsome stability, mouse; type: in vitro ADME; details: 2 μM, up to 60 minutes
Procedure: Reactions were stopped at timepoints between 0-60 min. and samples analysed by LCMS.

hERG potassium channels = molecular target: T1, hERG potassium channels (Homo sapiens, UniProt Q12809); test: hERG inhibition, manual patch-clamp in CHO cell line; type: cell-based; details: 0.1-30 uM, room temperature
T1 construct: expressed in transfected cells
Procedure: P1 (0.1-30 uM) was evaluated in vitro in a concentration-response (relationship of the effect on electric current passing through hERG (human ether-à-go-go-related gene) potassium channels (a surrogate for IKr, the rapidly activating, delayed rectifier cardiac potassium current) stably expressed in a CHO cell line using a manual patch-clamp technique.
The hERG current was recorded at room temperature using whole-cell patch-clamp techniques. Output signals from the patch-clamp amplifier were digitized and low-pass filtered at 2.9 kHz. The recording was controlled with Patchmaster Pro software. The recording chamber with cells seeded was mounted on an inverted microscope stage. A cell in the recording chamber was randomly picked up for testing. The cell was continuously perfused from the perfusion system. A micropipette filled with ICS was used as recording electrode in the manual patch-clamp study. The micropipette was prepared on the day of the patchclamp experiment using glass capillaries (GC150TF-10, Harvard Apparatus Co., UK). From the holding potential of −80 mV, the voltage was increased to +60 mV for 850 ms to open the hERG channels. After that, the voltage was decreased to −50 mV for 1275 ms, causing a “rebound” or tail current, the peak tail current was measured and collected for data analysis. Finally, the voltage was decreased to the holding potential (−80 mV). […]

[5] = 11 weeks of age, 20 min, vs vehicle

T1 sequence (Q12809 whole entry): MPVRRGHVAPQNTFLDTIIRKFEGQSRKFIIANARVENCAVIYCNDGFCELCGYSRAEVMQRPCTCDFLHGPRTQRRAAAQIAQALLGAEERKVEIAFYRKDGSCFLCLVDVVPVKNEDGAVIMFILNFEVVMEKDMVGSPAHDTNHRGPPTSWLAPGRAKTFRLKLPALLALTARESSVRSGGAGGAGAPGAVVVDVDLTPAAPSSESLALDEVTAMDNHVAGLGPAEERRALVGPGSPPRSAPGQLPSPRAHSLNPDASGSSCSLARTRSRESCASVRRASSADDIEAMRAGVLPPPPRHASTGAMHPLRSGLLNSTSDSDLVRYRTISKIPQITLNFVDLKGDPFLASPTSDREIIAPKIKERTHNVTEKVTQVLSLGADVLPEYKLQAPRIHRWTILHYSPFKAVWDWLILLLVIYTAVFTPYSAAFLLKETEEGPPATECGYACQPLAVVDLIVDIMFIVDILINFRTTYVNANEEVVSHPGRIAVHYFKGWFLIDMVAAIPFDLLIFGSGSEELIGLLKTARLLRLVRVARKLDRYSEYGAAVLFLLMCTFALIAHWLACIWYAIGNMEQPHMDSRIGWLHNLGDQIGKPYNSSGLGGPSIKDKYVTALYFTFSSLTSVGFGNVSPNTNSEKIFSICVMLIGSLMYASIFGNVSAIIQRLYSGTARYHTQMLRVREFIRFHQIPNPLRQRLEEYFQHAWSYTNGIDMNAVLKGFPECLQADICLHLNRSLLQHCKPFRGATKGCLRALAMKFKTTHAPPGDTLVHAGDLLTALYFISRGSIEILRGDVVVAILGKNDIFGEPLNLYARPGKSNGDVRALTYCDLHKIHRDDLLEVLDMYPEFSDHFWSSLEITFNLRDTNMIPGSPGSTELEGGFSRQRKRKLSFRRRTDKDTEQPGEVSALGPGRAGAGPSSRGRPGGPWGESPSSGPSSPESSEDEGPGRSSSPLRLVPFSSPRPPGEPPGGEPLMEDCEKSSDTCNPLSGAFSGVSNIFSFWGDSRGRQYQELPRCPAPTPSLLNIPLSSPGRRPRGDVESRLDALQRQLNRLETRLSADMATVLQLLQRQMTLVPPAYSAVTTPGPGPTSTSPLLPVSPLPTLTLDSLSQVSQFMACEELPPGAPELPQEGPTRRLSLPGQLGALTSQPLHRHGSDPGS

With `CSCC[C@@H]1NC(=O)[C@H](C(C)C)NC(=O)[C@H](CC(=O)O)NC(=O)[C@H](CCC(=O)O)NC(=O)[C@H](CCC(=O)O)NC(=O)[C@H](Cc2c[nH]cn2)NC(=O)[C@H](CCC(=O)O)NC(=O)[C@H](C(C)C)NC(=O)[C@@H]2CCCN2C(=O)[C@H](CCC(=O)O)NC(=O)[C@H]([C@@H](C)O)NC1=O` [Peptide P1, [MTEPVEHEEDV]] (cyclo(MTEPVEHEEDV)) as the molecule, how does the 340/380 intensity ratio (SH-SY5Y cells) read?
The 340/380 intensity ratio was “reduction”.

And the “drop in lysosomal pH” value (SH-SY5Y cells)?
The value was roughly 0.2 pH.

What about the mitochondrial mass (ST HDH cells (Q111, Q7); Q7 cells) of the same molecule?
The mitochondrial mass was “mitochondrial mass is increased”.

What about the mitochondrial mass (ST HDH cells (Q111, Q7); Q111 cells, 24 hours) of the same molecule?
The mitochondrial mass was “increased above the baseline from the healthy cell line”.

And the “BDNF levels in cortex” value [1]?
The value was “significantly higher basal levels”.

What about the “DARPP32 levels in cortex” value [1] of the same molecule?
The value was “tendency to increase”.

And the “PGC1a levels in cortex” value [1]?
Its value is “significantly higher basal levels”.

What about the “TrkB levels in cortex” value [1] of the same molecule?
The value was “significantly higher basal levels”.

And the “average increase of brain weight” value ([2]; 8 to 12 weeks of age, at 12 weeks)?
The value was 14 mg.

What about the “motor function, clasping” value ([2]; week 8-12) of the same molecule?
The value was “tendency to improve motor functions”.

And the “motor function, rotarod” value ([2]; week 8-12)?
Its value is “tendency to improve motor functions”.

What about the “distance travelled, open field” value [2, 5] of the same molecule?
Its value is “significantly higher”.

And the “rearing frequency, open field” value [2, 5]?
Its value is “significantly higher”.

And the half-life [3]?
The half-life was greater than 289 min.

What about the “clearance and stability in liver microsomes” value [4] of the same molecule?
Its value is “low clearance and high stability”.

And the “effect on hERG current” value (hERG potassium channels)?
Its value is “no effect on hERG current”.
